# In US20250099448A1, “HETEROCYCLIC COMPOUNDS” (Hoffmann-La Roche Inc., priority 2022, published 2025):
# Molecular target: T1, MAGL protein (Homo sapiens, UniProt Q99685)
# T1 sequence (Q99685 1-303): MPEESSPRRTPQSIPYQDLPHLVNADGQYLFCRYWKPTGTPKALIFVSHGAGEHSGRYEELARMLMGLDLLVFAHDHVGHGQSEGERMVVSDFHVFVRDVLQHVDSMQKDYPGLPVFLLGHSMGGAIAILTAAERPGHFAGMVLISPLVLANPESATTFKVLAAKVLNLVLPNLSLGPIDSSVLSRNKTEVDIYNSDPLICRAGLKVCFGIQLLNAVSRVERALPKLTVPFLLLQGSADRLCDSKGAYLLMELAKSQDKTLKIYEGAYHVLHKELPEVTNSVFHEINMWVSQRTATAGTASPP
# Test: 2-AG assay: MAGL inhibitory activity by hydrolysis of 2-arachidonoylglycerol to arachidonic acid, followed by mass spectrometry
# Type: biochemical
# Details: 8 μM 2-arachidonoylglycerol, 15 min preincubation, 30 min reaction at RT, RapidFire MS readout
# Outline: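 Activity was measured by RapidFire SPE–triple-quad MS as the ratio of arachidonic acid to d8-arachidonic acid after 2-AG hydrolysis (8 μM substrate, 30 min, RT, acetonitrile quench). Compounds, tested from 12.5 μM down to […], were first preincubated 15 min with MAGL in TRIS/EDTA/Tween-20 buffer containing 2.5% DMSO.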
row,SMILES,IC50 [nM]
1,O=C(N1CC2(CC(c3nc(C4(O)CC4)n[nH]3)C2)C1)N1CC2(CC(S(=O)(=O)c3cccc(OC(F)(F)F)c3)C2)C1 [compound 484],89.2
2,O=C(N1CC2(CC(Cn3nccc3C(F)(F)F)C2)C1)N1CC2(CC(c3nc(C4(F)CC4)n[nH]3)C2)C1 [compound 457],0.31
3,CS(=O)(=O)c1cc(CC2CC3(C2)CN(C(=O)N2CC4(CC(c5nnc(C6(O)CC6)[nH]5)C4)C2)C3)ccc1C(F)(F)F [compound 42],0.88
4,O=C(N1CC2(CC(Cn3nccc3C(F)(F)F)C2)C1)N1CC2(CC(c3nc(C4CC4)n[nH]3)C2)C1 [compound 410],0.14
5,O=C(N1CCC(c2nn(CCO)c3ccc(C(F)(F)F)cc23)CC1)N1CC2(CC(c3nnc(C4CC4)[nH]3)C2)C1 [compound 519],13.9
6,O=C(N1CC2(CC(c3nc(C4CC4)n[nH]3)C2)C1)N1CC2(CC(C(F)(F)c3ccc(C(F)(F)F)nn3)C2)C1 [compound 446],1.71
7,O=C(N1CC2(CCC(Cc3ncc(F)cc3F)CC2)C1)N1CC2(CC(c3nnc(C4(O)CC4)[nH]3)C2)C1 [compound 143],14.5
8,CC(C)(C)c1coc(CN2CC3(C2)CN(C(=O)N2CC4(CC(c5nc(C6CC6)n[nH]5)C4)C2)C3)n1 [compound 483],2.13
9,O=C(N1CC2(CC(Cc3ncc(F)cc3Cl)C2)C1)N1CC2(CC(c3nc(C4CC(F)(F)C4)n[nH]3)C2)C1 [compound 617],8.16
10,CS(=O)(=O)c1ccc(CC2CC3(C2)CN(C(=O)N2CC4(CC(c5nnc(C6CC6)[nH]5)C4)C2)C3)nc1 [compound 119],6.52
11,O=C(N1CC2(CC(c3nc(C4CC4)n[nH]3)C2)C1)N1CC2(CC[C@H](Cc3ccc(S(=O)(=O)C(F)(F)F)cc3)C2)C1 [compound 667],0.09
12,CC(C)(C)CS(=O)(=O)N1CC2(CN(C(=O)N3CC4(CC(c5nnc(C6CC6)[nH]5)C4)C3)C2)C1 [compound 212],58.1
13,O=C(N1CC2(CC(Cc3ccc(C(F)(F)F)nn3)C2)C1)N1CC2(CC(c3nnc(C4CC4)[nH]3)C2)C1 [compound 22],0.8
14,O=C(N1CC2(CC(c3nc(C4(O)CC4)n[nH]3)C2)C1)N1CC2(CC[C@H](Cc3cccc(S(=O)(=O)C(F)(F)F)c3)C2)C1 [compound 741],0.15
15,CS(=O)(=O)c1cc(F)ccc1C12CC(C3CN(C(=O)N4CC5(CC(c6nc(C7CC7)n[nH]6)C5)C4)C3)(C1)C2 [compound 685],0.96
16,O=C(N1CC(NCc2ccc(C(F)(F)F)cc2F)C1)N1CC2(CC(c3nnc(C4CC4)[nH]3)C2)C1 [compound 192],23.2
17,Cc1cc(C(F)(F)F)n(CC2CC3(C2)CN(C(=O)N2CC4(CC(c5nc(C6CC6)n[nH]5)C4)C2)C3)n1 [compound 428],0.31
18,O=C(N1CC(NCc2cc(Cl)ccc2C(F)(F)F)C1)N1CC2(CC(c3nnc(C4CC4)[nH]3)C2)C1 [compound 199],31.9
19,O=C(N1CC2(CC(c3nc(C4(F)CC4)n[nH]3)C2)C1)N1CC2(CN(Cc3ccc(S(=O)(=O)C(F)(F)F)cc3)C2)C1 [compound 427],1.33

row,SMILES,IC50 [nM]
1,O=C(N1CC2(CC(c3nc(C4CC4)n[nH]3)C2)C1)N1CC2(CN(Cc3nc(C(F)(F)F)cs3)C2)C1 [compound 430],5.22
2,O=C(N1CC2(CC(c3nc(C4(F)CC4)n[nH]3)C2)C1)N1CC2(CN(Cc3nc(C(F)(F)F)cs3)C2)C1 [compound 643],6.67
3,O=C(N1CC2(CC(c3nc(C4CC4)n[nH]3)C2)C1)N1CC2(CC(C(F)(F)c3cnc(C(F)(F)F)cn3)C2)C1 [compound 944],0.96
4,NC(=O)C1CCCCN1c1ccc(C2CN(C(=O)N3CC4(CC(c5nnc(C6CC6)[nH]5)C4)C3)C2)cc1 (stereo not drawn) [compound 384],2.64
5,O=C(N1CC2(CC(Cc3nc(C(F)(F)F)no3)C2)C1)N1CC2(CC(c3nc(C4CC4)n[nH]3)C2)C1 [compound 683],0.21
6,N#Cc1ccc(CN2CC3(C2)CN(C(=O)N2CC4(CC(c5nc(C6CC6)n[nH]5)C4)C2)C3)c(C(F)(F)F)c1 [compound 882],1.82
7,O=C(N1CC(C23CC(NCC4(C(F)(F)F)CC4)(C2)C3)C1)N1CC2(CC(c3nnc(C4CC4)[nH]3)C2)C1 [compound 342],0.49
8,O=C(N1CC(c2ccc(N3CC4(CCCC4)C3)nc2)C1)N1CC2(CC(c3nc(C4(O)CC4)n[nH]3)C2)C1 [compound 937],1.58
9,Cc1cc([C@@H](C)C2CC3(C2)CN(C(=O)N2CC4(CC(c5nc(C6CC6)n[nH]5)C4)C2)C3)ncc1C(F)(F)F [compound 966],0.14
10,O=C(N1CC2(CCC(Cc3cnc(C(F)(F)F)cn3)CC2)C1)N1CC2(CC(c3nnc(C4(O)CC4)[nH]3)C2)C1 [compound 137],6.79
11,O=C(N1CC2(CC(Cc3n[nH]c(C4(C(F)(F)F)CC4)n3)C2)C1)N1CC2(CC(c3nnc(C4CC4)[nH]3)C2)C1 [compound 816],1.61
12,O=C(N1CC2(CC(Cc3ccc(C(F)(F)F)nc3)C2)C1)N1CC2(CC(c3nnc(C4CC4)[nH]3)C2)C1 [compound 5],0.16
13,O=C(N1CC2(CC(c3nnc(C4CC4)[nH]3)C2)C1)N1CC2(C1)CN(S(=O)(=O)NCc1ccc(F)cc1)C2 [compound 214],19.9
14,CS(=O)(=O)c1cccc(CC2CC3(C2)CN(C(=O)N2CC4(CC(c5nnc(C6CCC6)[nH]5)C4)C2)C3)c1 [compound 17],15.2
15,O=C(N1CC2(CC(Cc3ccc(C(F)(F)F)cc3F)C2)C1)N1CC2(CC(c3nnc(C4CC4)[nH]3)C2)C1 [compound 37],0.01
16,"N=[S@@](=O)(c1ccc(CC2CC3(C2)CN(C(=O)N2CC4(CC(c5nnc(C6CC6)[nH]5)C4)C2)C3)cc1)C(F)(F)F (single isomer, unassigned) [compound 128]",0.16
17,O=C(N1CC2(CC(c3nc(C4CC4)n[nH]3)C2)C1)N1CC2(CN(Cc3coc(C(F)(F)F)n3)C2)C1 [compound 763],27.1
18,CCNC(=O)c1cc(Cl)ccc1C12CC(C3CN(C(=O)N4CC5(CC(c6nnc(C7CC7)[nH]6)C5)C4)C3)(C1)C2 [compound 767],4.07
19,O=C(N1CC(C23CC(Cc4ccc(C(F)(F)F)cc4F)(C2)C3)C1)N1CC2(CC(c3nc(C4CC4)n[nH]3)C2)C1 [compound 527],0.98

row,SMILES,IC50 [nM]
1,O=C(N1CC2(CC(Cc3ccc(C(F)(F)F)cc3F)C2)C1)N1CC2(CC(c3nc(C4CC(F)(F)C4)n[nH]3)C2)C1 [compound 467],0.33
2,O=C(N1CC2(CC(c3nc(C4CC4)n[nH]3)C2)C1)N1CC2(CN(Cc3ccnn3CC(F)F)C2)C1 [compound 597],135
3,N#Cc1cc(C(F)(F)F)ccc1CC1CC2(C1)CN(C(=O)N1CC3(CC(c4nnc(C5(O)CC5)[nH]4)C3)C1)C2 [compound 477],0.08
4,O=C(N1CC2(CC(Cc3ccc(C(F)(F)F)cn3)C2)C1)N1CC2(CC(c3nnc(C4CC4)[nH]3)C2)C1 [compound 110],0.21
5,CS(=O)(=O)c1cc(F)cc(CC2CC3(C2)CN(C(=O)N2CC4(CC(c5nnc(C6(O)CC6)[nH]5)C4)C2)C3)c1 [compound 19],4.81
6,CS(=O)(=O)c1cc(Cl)ccc1-c1ccc(C2CN(C(=O)N3CC4(CC(c5nnc(C6CC6)[nH]5)C4)C3)C2)cc1 [compound 337],0.07
7,O=C(N1CC2(CC(Cc3cc(F)cc(C(F)(F)F)c3)C2)C1)N1CC2(CC(c3nc(C4COC4)n[nH]3)C2)C1 [compound 742],2.18
8,O=C(N1CC(c2ccc(S(=O)(=O)C(F)(F)F)cc2)C1)N1CC2(CC(c3nnc(C4CC4)[nH]3)C2)C1 [compound 243],0.57
9,O=C(N1CC2(CCN(S(=O)(=O)C34CC(C(F)(F)F)(C3)C4)CC2)C1)N1CC2(CC(c3nnc(C4CC4)[nH]3)C2)C1 [compound 237],17.1
10,N#Cc1ccc(CC2CC3(C2)CN(C(=O)N2CC4(CC(c5nc(C6(O)CC6)n[nH]5)C4)C2)C3)c(F)c1 [compound 752],0.29
11,CS(=O)(=O)c1ccc(CC2CC3(C2)CN(C(=O)N2CC4(CC(c5nc(C6CC(F)(F)C6)n[nH]5)C4)C2)C3)cc1 [compound 582],167
12,CC(C)S(=O)(=O)c1ccc(C2CN(C(=O)N3CC4(CC(c5nnc(C6CC6)[nH]5)C4)C3)C2)c(Cl)c1 [compound 247],3.7
13,O=C(N1CC(C23CC(CNC4(C(F)(F)F)CC4)(C2)C3)C1)N1CC2(CC(c3nnc(C4CC4)[nH]3)C2)C1 [compound 341],0.12
14,O=C(N1CC(c2ccc(C3(C(F)(F)F)CC3)cn2)C1)N1CC2(CC(c3nnc(C4CC4)[nH]3)C2)C1 [compound 236],4.52
15,O=C(N1CC2(CC(Cc3ccc(F)cc3F)C2)C1)N1CC2(CC(c3nnc(C4(O)CC4)[nH]3)C2)C1 [compound 36],0.05
16,COC(=O)C1(c2ccc(C3CN(C(=O)N4CC5(CC(c6nnc(C7CC7)[nH]6)C5)C4)C3)cc2)CC1 [compound 372],0.57
17,O=C(N1CC2(CC(Cn3cnc(C4(C(F)(F)F)CC4)n3)C2)C1)N1CC2(CC(c3nc(C4CC4)n[nH]3)C2)C1 [compound 787],1.2
18,"Cc1cn(-c2ccc(C3CN(C(=O)N4CC5(CC(c6nnc(C7CC7)[nH]6)C5)C4)C3)cc2)cn1 [Example 806, [6-(5-cyclopropyl-4H-1,2,4-triazol-3-yl)-2-azaspiro[3.3]heptan-2-yl]-[3-[4-(4-methylimidazol-1-yl)phenyl]azetidin-1-yl]methanone]",9.72
19,O=C(N1CC(c2cnc(C3CC4(CCC4)C3)cn2)C1)N1CC2(CC(c3nnc(C4CC4)[nH]3)C2)C1 [compound 286],0.48
